# Peptide text beside a SMILES is read from it.
# Test system: ZIKV strain MR766
# Assay: Extracellular ZIKV RNA in supernatants of infected human fetal astrocytes (real-time RT-PCR)
# Assay type: cell-based, Zika virus
# Settings: ZIKV MOI 0.5, 48 h, cell-free supernatants
# Experimental: Total mRNA was isolated with TRIzol Reagent (Thermo Fisher Scientific) and RNeasy Mini Kit (QIAGEN Inc., Valencia, CA, USA) following the manufacturer’s recommendations. Two real-time RT-PCR methods were used for the current studies. First, SYBR Green-based RT-PCR assay was used to determine intracellular ZIKV RNA in Vero cells. For this assay, reverse transcription was performed using Verso cDNA synthesis Kit (Thermo Fisher Scientific) and 1 µg of total RNA in a 15-µL final volume. The RT-PCR analyses were performed using 7.5-µL SYBR Green PCR Master Mix (Thermo Fisher Scientific) with 0.5-µL cDNA, 1.5-µL H2O, 5.5-µL oligonucleotide primer pairs at 10 µM. […] GG-3. PCR program: 1, 50°C for 2 min; 2, 95°C for 2 min; 3, 95°C for 15 s; 4, specific annealing temperature for 15 s; 5, 72°C for 1 min. Steps 2–4 were repeated 40 times. All samples were amplified in triplicate for analysis. Relative ZIKV RNA levels were determined and standardized with a GAPDH internal control using comparative ΔΔCT method ([35]). Second, TaqMan-based RT-PCR assay was used to determine intracellular ZIKV RNA and other gene expressions in Figures 3–6 and extracellular ZIKV RNA in Figure 3. The TaqMan assay was performed in a StepOne^TM Real-Time PCR system (Thermo Fisher Scientific). Primers used for TaqMan real-time RT-PCR were all from the Thermo Fisher Scientific, which included ZIKV (forward sequence: 5-[…]-3, reverse sequence: 5- […]-3, and probe sequence: 5′-[…]-3), IFN-α2 (Hs00265051_s1), IFN-β1 (Hs01077958_s1), eukaryotic 18-s rRNA (Hs99999901_s1), β-actin (Hs99999903_m1), and GAPDH (Catalog number: 4310884E). Relative ZIKV mRNA levels were determined and standardized with a GAPDH or 18-s rRNA endogenous control using comparative ΔΔCT method ([35]). […] Quantitative genomic RNA from ZIKV (NR-1838DQ, ATCC) was used as a standard to calculate viral copies.
# (A) Human fetal astrocytes were treated with doses of the selected peptides ranging from 1 to 50 µM. […] Cell viability was determined by a colorimetric MTS assay. […] Data were analyzed by nonlinear regression and assessed the EC50 for each of the antimicrobial peptides. […] At the experimental endpoint, intracellular ZIKV RNA (B) was determined through real-time RT-PCR in total cellular RNA. […] Extracellular ZIKV RNA [(C), in log scale] was determined through real-time RT-PCR using total RNA isolated from cell-free supernatants. ZIKV virion levels (in log scale) were determined by adding cell-free culture supernatants to Vero cells and overlaid with Agar gel in viral PFA (D). Viral plaques were manually counted and calculated as PFU/mL (E). * p < 0.05, ** p < 0.01, and *** p < 0.001, as compared with the ZIKV group without peptide treatment (ANOVA, N = 3).
SMILES,"Extracellular ZIKV RNA in culture supernatants, reduced to % of untreated (peptide 2 µM) [%]","Extracellular ZIKV RNA in culture supernatants, reduced to % of untreated (peptide 10 µM) [%]"
CC[C@H](C)[C@H](NC(=O)[C@H](CCCNC(=N)N)NC(=O)[C@H](CCC(N)=O)NC(=O)[C@@H](NC(=O)[C@@H](NC(=O)[C@H](CCCNC(=N)N)NC(=O)[C@H](CCCCN)NC(=O)[C@H](Cc1ccccc1)NC(=O)CN)[C@@H](C)CC)C(C)C)C(=O)N[C@@H](CCCCN)C(=O)N[C@@H](CC(=O)O)C(=O)N[C@@H](Cc1ccccc1)C(=O)N[C@@H](CC(C)C)C(=O)N[C@@H](CCCNC(=N)N)C(=O)N[C@@H](CC(N)=O)C(=O)N[C@@H](CC(C)C)C(=O)N[C@H](C(N)=O)C(C)C [GF-17] (H-GFKRIVQRIKDFLRNLV-NH2; N-terminus and C-terminus assumed),16.7,0.1
CC[C@H](C)[C@H](NC(=O)[C@H](CCCCN)NC(=O)[C@H](CCCCN)NC(=O)[C@H](Cc1ccccc1)NC(=O)[C@H](CC(C)C)NC(=O)[C@H](CCCCN)NC(=O)[C@H](CCCCN)NC(=O)[C@H](Cc1ccccc1)NC(=O)[C@H](CCCCN)NC(=O)[C@H](CCCCN)NC(=O)[C@H](CCCNC(=N)N)NC(=O)[C@H](Cc1ccccc1)NC(=O)[C@H](CCCNC(=N)N)NC(=O)[C@H](CCCCN)NC(=O)[C@H](Cc1ccccc1)NC(=O)[C@H](CCCNC(=N)N)NC(=O)CN)C(=O)N[C@@H](CO)C(=O)O [BMAP-18] (H-GRFKRFRKKFKKLFKKIS-OH; N-terminus and C-terminus assumed),5.6,1.3

# From article PMC5906549, “Cathelicidin-Derived Antimicrobial Peptides Inhibit Zika Virus Through Direct Inactivation and Interferon Pathway” (Frontiers in Immunology, 2018)
